Experimental data taken from patent publication US6642201B1, “Use of a dipeptide for stimulating repair processes” (priority 1998, dated 2003).
Several values for one entry are separate records, joined by “and”; a condition that tells them apart may be missing. Equal entries are not always repeated. Marks after values point to notes of the source that are not given here. Where a SMILES comes first, the peptide text is derived from it.

Assays:
[1] = system: duodenum mucous membrane cells; assay: Regeneration of the intestinal mucous membrane after radiation injury; format: in vivo, white male rats of the Wistar line; details: 8th day
Protocol: The work has been performed on 24 two-month-old white male rats of the Wistar line, weighing 90-100 grams. The following three groups of animals were researched;
2 group—control (irradiated animals);
3 group—irradiated animals injected with L-Lys-L-Glu dipeptide.
A general single γ—irradiation of 6 Gy, inducing “the syndrome of intestinal death”, was made by the cobalt apparatus GUB 20000, with the dose capacity of 200 rad/min.
L-Lys-L-Glu dipeptide was injected 24 hours after the irradiation—0.5 μkg in 0.5 ml of the […]—intraperitoneally during 5 days. The animals from the first and second groups received the […] by the same scheme.
The study of L-Lys-L-Glu dipeptide's action has been performed on the proximal section of the duodenum of irradiated animals. The animals were killed under nembutal narcosis (50 mg/kg on the 8th day after irradiation (beginning of the period of repair regeneration). Pieces of the duodenum were being preserved during 24 hours by Karnovsky for the electronic microscopy.
The ultra-structural research was conducted under the JEM-100S microscope (JEOL, Japan) at the ultra-thin microscopic sections prepared on the LKB-7A ultra-microtome (LKB, Sweden) and contrasted by uranilacetatc and lead cytrate.
Mast cells were selectively stained with 1% solution of toluidine blue (Fluka) in 0,5 M HCl, with pH—0.5 (8,9).
To reveal MTL-positive cells, were used rabbits' antibodies to metal-tioneins (1-2000).
Immunohistochemical identification of antigenes at the histological sections was made according to the main requirements to immune-peroxydase methods (10,11).
The quantity research was conducted with the help of the system of computer analysis of microscopic images—IMSTAR (Imstar, France)—the Morphostar-2 and Colquant-2 license applied software were employed, in accordance with the general principles of stereology in morphometry (12, 13). For each animal, the calculation of corresponding structures was made In ten visual eye sights by three sections of the studied organ. The mitotic index (1mit) and the index of proliferating ability (Ipcna) of the duodenum cells were defined in 10-15 standard sections of crypts, with the overall contents of not less than 1000 nuclei of enterocytes. The test area for finding serotonin-positive and mast cells covered not less than 3 mm^2. MML-positive cells were counted in 100 duodenum crypts.

[2] = system: sluggish-granulating wounds and phlegmon of the maxillofacial zone; assay: Clinical complex treatment of pyo-inflammatory diseases of different localization; format: in vivo; details: patients, 1 μkg i.m. every day during ten days
Protocol: 1 μkg of the preparation was injected intramuscularly, every day during ten days. Effectiveness of the treatment was evaluated in dynamics according to the changes in activity of wound enzymes and time of healing.

[3] = system: sluggish-granulating wounds after surgical treatment for cancer; assay: Clinical complex treatment of cancer patients with post-operative complications; format: in vivo
Protocol: In the pre-operation period, the patients underwent a radical-scheme, radiation therapy employing large fields of complex configuration on the linear electron accelerator (its power is 4,3 Mev) and gamma-therapy device “Rokus-M” in the brake mode. In particular cases, one of the components of the combined treatment was chemotherapy.
Beginning from the third day after the operation, 1 μkg of L-Lys-L-Glu dipeptide was injected intramuscularly daily during 10 days.

[4] = system: purulent incised crushed wounds of the femural soft tissues; assay: Healing of purulent incised crushed wounds of the soft tissues; format: in vivo, shinshilla rabbits; set-up: key to Fibroblasts / Histiocytes / Leukocyles / Macrophases / Necrosis: 1 point - absent; 2 points - single (traces); 3 points - few; 4 points - diffuse (moderately); 5 points - many-,; 6 points - very many
Excerpt: (§1) The efficacy of L-Lys-L-Glu dipeptide was estimated on the model of purulent incised crushed wounds of the femural soft tissues in shinshilla rabbits of both sexes with body weight 2-3 kg. Therefore, the rabbits underwent shaving in the area of femural soft tissues with subsequent incision 5 cm long and 2 sm deep. Soft tissues (muscles, subcutaneous fat) were crushed with Kocher 's forcepts and infected with the pathogenic mixture Staphylococcus aureus, strain 186. Afterwards, the wound was sutured. In 72 hours the sutures were lifted; and the wound was treated with 3% solution of hydrogen peroxide.
(§2) The animals of experimental group were injected intramuscularly every day for five days with dipeptide L-Lys-L-Glu in a single dose 1 μkg per injection. Control rabbits were injected with sodium chloride solution according to the same scheme. In the process of treatment the wounds were treated with antiseptic remedies for external use.
(§3) The estimation of L-Lys-L-Glu dipeptide efficacy in the dynamics of the inflammatory process regression was based on the terms of crust rejection and wound clearance from the pyo-necrotic mass, and appearance of the granular tissue in the wound and beginning of edge epithelization. […] The activity of tissue enzymes was also estimated (5,6,7).

[5] = system: purulent incised crushed wounds of the femural soft tissues; assay: as above; format: in vivo, shinshilla rabbits; set-up: key: 1 point - absent; 2 points - single (traces); 3 points - few; 4 points - diffuse (moderately); 5 points - many-,; 6 points - very many; details: rabbits, 1 μkg i.m. daily 5 days
Excerpt: as §1, §2, §3

[6] = irradiated rats 6 Gy, 0.5 μkg i.p. during 5 days, duodenum
[7] = irradiated rats 6 Gy, 0.5 μkg i.p. during 5 days, duodenum crypts
[8] = rabbits, 1 μkg i.m. daily 5 days
[9] = rabbits, 1 μkg i.m. daily 5 days, day 6
[10] = rabbits, 1 μkg i.m. daily 5 days, day 14
[11] = rabbits, 1 μkg i.m. daily 5 days, day 21
[12] = rabbits, 1 μkg i.m. daily 5 days, day 29
[13] = rabbits, 1 μkg i.m. daily 5 days, day 40

Structure (SMILES): NCCCC[C@H](N)C(=O)N[C@@H](CCC(=O)O)C(=O)O [L-Lys-L-Glu dipeptide, L-lysil-L-glutamic acid] (H-Lys-Glu-OH)
- NMC/1 mm^2 (quantity of mast cells/1 square mm) [1, 6]: 24 ± 3 /1 mm^2
- NMT/100 crypts (quantity of L-positive cells in 100 intestine crypts) [1, 6]: 102 ± 9 /100 crypts
- Pser (volume density of serotonin-immunopositive cells) [1, 6]: 0.71 ± 0.09%
- IPCNA (index of cell proliferative ability-PCNA) [1, 7]: 49.89% and 49.8 ± 0.7 %
- Imit (mitotic index) [1, 7]: 4.7% and 4.7 ± 0.1%
- MTL-positive cells in the crypts' base ([1]; irradiated rats): tendency to the increase of number and intensity of immune-staining
- quantitative density of enterochromaffinn cells ([1]; irradiated rats): practically gets equal to that of healthy animals
- activity of wound enzymes [2]: increased the activity of wound ferments in the first phase of the wound process
- clearance of the wounds from necrotic tissues [2]: accelerate clearance of the wounds from necrotic tissues
- treatment period [2]: reduction of the treatment period
- edema and pain in the wound area ([3]; 1 μkg i.m. daily during 10 days from third day after operation): helped to reduce edema and pain in the wound area
- time of treatment ([3]; complex treatment): reduces the time of their treatment
- activity of acid phosphatase in histiocytes ([4]; phase of proliferation (14-28 days)): high activity of acid phosphatase in histiocytes
- Terms of complete clearance of the wound surface from necrotizing tissues [4, 8]: 14.2 + −1.3* days
- Terms of the wound epithelization [4, 8]: 24.9 + −1.9* days
- Terms of tile onset of necrotizing tissue rejection form the wound surface [4, 8]: 8.3 + −1.1*
- Fibroblasts [4, 9]: 4*
- Histiocytes [4, 9]: 4
- Leukocyles [4, 9]: 5
- Macrophases [4, 9]: 3
- Necrosis [4, 9]: 3*
- Fibroblasts [4, 10]: 5*
- Histiocytes [4, 10]: 5*
- Leukocyles [4, 10]: 5
- Macrophases [4, 10]: 3
- Necrosis [4, 10]: 2*
- Fibroblasts [4, 11]: 5
- Histiocytes [4, 11]: 5
- Leukocyles [4, 11]: 4
- Macrophases [4, 11]: 2
- Necrosis [4, 11]: 2*
- Fibroblasts [4, 12]: 5
- Histiocytes [4, 12]: 4
- Leukocyles [4, 12]: 4*
- Macrophases [4, 12]: 2
- Necrosis [4, 12]: 1
- Fibroblasts [4, 13]: 6*
- Histiocytes [4, 13]: 6*
- Leukocyles [4, 13]: 2
- Macrophases [4, 13]: 2*
- Necrosis [4, 13]: 1
- activity of alkaline phosphatase in foci of leukocytory infiltration and vascular endothelium ([4]; rabbits, wound tissue): high activity of alkaline phophotase
- Alcaline phosphotase in leukocytes ([5]; day 6): 6*
- Alcaline phosphotase in vessels ([5]; day 6): 6*
- Acid phosphotase in histiocytes ([5]; day 14): 6*
- Alcaline phosphotase in leukocytes ([5]; day 14): 6*
- Alcaline phosphotase in leukocytes ([5]; day 28): 6
- Alcaline phosphotase in vessels ([5]; day 28): 4
- Alcaline phosphotase in vessels ([5]; day 40): 4*
